Tests used:
cancer cells = conditions: Japanese Patent No. 93-9123, Sato et al. 1994; cited from earlier work
[1] = tested on: leukemia cell line (K562); test: Inhibition on the proliferation of leukemia cell line K562, MTT; assay type: cell-based; conditions: for IC50: Homo sapiens, K562, 24 hours, MTT; for inhibitory activities on the proliferation of tumor cells: in words
Procedure: (§1) Inhibition on the vascularization of tumor (Test for the inhibition on the proliferation)
(§2) Human lymphocyte (HL), leukemia cell line (K562) and bovine artery endotheliocyte (BAE) were used for this experiment. HL (1×10^5 cells), leukemia cell line (K562) (2×10^5 cells) and BAE (5×10^3 cells) were cultured in a medium (HL, K562: RPMI 1640 medium containg 10% fetal bovine, BAE: DMEM medium containing 10% fetal bovine) containing intestinal flora metabolites of ginseng saponin concentrated with 2-fold dilution in 5% CO2 saturated with steam (HL, K562: 24 hours, BAE: 72 hours). The number of each survived cell was purified by MTT method to calculate 50% inhibition concentration (IC50), impaired rate of cells (IC50 (HL)/IC50 (BAE) and IC50 (K562)/IC50 (BAE).

[2] = tested on: bovine artery endotheliocyte (BAE); test: Inhibition on the proliferation of bovine artery endotheliocyte (BAE), MTT; assay type: cell-based; conditions: for IC50: Bos taurus, BAE, 72 hours, MTT; for IC50 (C)/IC50 (BAE), C = HL: ratio IC50 (HL)/IC50 (BAE); for IC50 (C)/IC50 (BAE), C = K562: ratio IC50 (K562)/IC50 (BAE)
Procedure: as §1, §2

[3] = tested on: bovine artery endotheliocyte (BAE); test: Inhibition on the migration of bovine artery endotheliocyte (vascularization of tumor); assay type: cell-based; conditions: for Migration-inhibition (% control), IC10: at the 10% inhibitory concentration (IC10); for Migration-inhibition (% control), IC10 / Migration-inhibition (% control), IC50: 24 hours; for Migration-inhibition (% control), IC50: at the 50% inhibitory concentration (IC50)
Procedure: Inhibition on the vascularization of tumor (Test for the inhibition on the migration)
Bovine artery endotheliocyte (BAE) was used for this experiment. BAE (5×10^3 cells) was cultured in 6-well plate for 24 hours and cells attached to the plate were detached by a razor. Said medium was replaced by a new one and after one hour, a solution of intestinal flora metabolite of ginseng saponin was added to the desired inhibitory concentration of 10% and 50%, respectively for 24-hour cultivation. After completing the cultivation, cells were fixed with methanol, stained with Giemsa method and counted the cells migrated from the detached line under microscope.

Human lymphocyte (HL) = test: Inhibition on the proliferation of human lymphocyte (HL), MTT; assay type: cell-based; conditions: 24 hours
Procedure: as §1, §2

[4] = tested on: Human adenosarcoma tissue cell (HT1080); test: Inhibition on the extravasation of basement membrane (haptoinvasion, matrigel/FN filter); assay type: cell-based; conditions: for IC50 / inhibition at 10 µM / inhibition at 100 µM / inhibition at 1000 µM / inhibition at 1 µM: Homo sapiens; for IC50: HT-1080, 4 h, 50% inhibition of extravasation, read-out: ED50 (50% extravasation-inhibitory concentration); for inhibition at 10 µM / inhibition at 100 µM / inhibition at 1000 µM / inhibition at 1 µM: HT-1080, read-out: Inhibition rate (%)
Procedure: Inhibition on the extravasation of basement membrane
The transwell culture chamber was used for this experiment with a haptoinvasion method (reference: Cancer Res., 47, 3239, (1987)). The lower side of a filter having a hole of 8.0 μm in diameter was coated with 5 μg of matrigel for the fabrication of matrigel/FN filter. Human […] tissue cell (HT1080), treated in the intestinal flora metabolite of ginseng saponin in a concentration of 1-1000 μM at 37° C. for 30 minutes, was charged to the upper side of each filter with 1×10^5 cells/100 μL. Then, said filters were added to 24-well plate having 600 μL of MEM medium supplemented with 0.1% bovine serum albumin and them cultured for 4-hour cultivation. After completing the cultivation, cells were fixed with methanol and stained with hematoxylin, a tissue staining agent. Following the removal of cells at the upper side with a cotton pole, cells infiltrating into the lower side were counted under microscope.

[5] = tested on: leukemia cell line (P388); test: Antitumor activity of mouse spleen lymphocytes on leukemia cell line P388 (MTT); assay type: cell-based, mice; conditions: for activity at 2.5 µM: P388, 2.5 μM for 16 hours (Compound K 1.56, Compound Y 1.86, Ginsenoside Mc 1.86, 20(S)-protopanaxatriol 1.19 μg/ml), control 31.3%; for fold induction at 2.5 µM: P388, 16 h, read-out: Antitumor activity, times as high as control
Procedure: Antitumor activity on leukemia cell line (P388) in lymphocyte of mice
Spleen lymphocytes of mice and leukemia cell line (P388) were used for this experiment. Spleen lymphocytes (4×10^6 cells) and leukemia cells (P388) (2×10^8 cells) were cultured in a medium (RPMI 1640 supplemented with 20 μM mercaptoethanol and 10% fetal bovine serum) containing intestinal flora metabolite of ginseng saponin (2.5 μM) in 5% CO2 saturated with steam for 16 hours. Aside from this, same numbers of spleen lymphocytes or leukemia cell line were cultured in a medium containing intestinal flora metabolite of ginseng saponin in same is concentration as a control. The number of each survived cell was purified by MTT method to calculate impaired rate of cells on leukemia cells (P388) of lymphocytes.

liver cancer cells = conditions: Japanese Patent No. 89-28759; cited from earlier work
[6] = Toxicity in animal experiments with rats and mice

Structure (SMILES)	IC50 [1] [µM]	IC50 [2] [µM]	IC50 (C)/IC50 (BAE), C = HL [2]	IC50 (C)/IC50 (BAE), C = K562 [2]	Migration-inhibition (% control), IC10 [3] [% control]	Migration-inhibition (% control), IC50 [3] [% control]	IC50 (Human lymphocyte (HL)) [µM]	No. of infiltrated cancer cell/field ([4]; 1 μM) [cell/field]	No. of infiltrated cancer cell/field ([4]; 10 μM) [cell/field]	No. of infiltrated cancer cell/field ([4]; 100 μM) [cell/field]	No. of infiltrated cancer cell/field ([4]; 1000 μM) [cell/field]	IC50 [4] [µM]	inhibition at 10 µM ([4]; 10 μM) [%]	inhibition at 100 µM ([4]; 100 μM) [%]	inhibition at 1000 µM ([4]; 1000 μM) [%]	activity at 2.5 µM [5] [%]	fold induction at 2.5 µM [5]	also measured
CC(C)=CCC[C@@](C)(O)[C@H]1CC[C@]2(C)[C@@H]1[C@H](O)C[C@@H]1[C@@]3(C)CC[C@H](O[C@@H]4O[C@H](CO)[C@@H](O)[C@H](O)[C@H]4O[C@@H]4O[C@H](CO)[C@@H](O)[C@H](O)[C@H]4O)C(C)(C)[C@@H]3CC[C@]12C [ginsenoside Rg3, 3-0-[β-D-glucopyranosyl(1→2)-β-D-glucopyranosyl]-20(R)-protopanaxadiol]																		inhibition of vascularization of tumors, extravasation and metastasis of cancer cells (cancer cells): inhibit the vascularization of tumors and extravasation of cancer cells including inhibitory actions on the metastatis of cancer cells
CC(C)=CCC[C@](C)(O[C@@H]1O[C@H](CO[C@@H]2OC[C@H](O)[C@H](O)[C@H]2O)[C@@H](O)[C@H](O)[C@H]1O)[C@H]1CC[C@]2(C)[C@@H]1[C@H](O)C[C@@H]1[C@@]3(C)CC[C@H](O)C(C)(C)[C@@H]3CC[C@]12C [Compound Y, 20-0-[α-L-arabinopyranosyl (1→6)-β-D-glucopyranosyl]-20(S)-protopanaxadiol]	78	32	2.6	2.6	-3.7	28.9	83	125 ± 7	92 ± 11	24 ± 2	0	31	21	62	100	56.6	1.8	
CC(C)=CCC[C@](C)(O)[C@H]1CC[C@]2(C)[C@@H]1[C@H](O)C[C@@H]1[C@@]3(C)CC[C@H](O)C(C)(C)[C@@H]3[C@@H](O)C[C@]12C [20(S)-protopanaxatriol]	49	36	7.8	1.4	-1.6	30.0	280	103 ± 14	93 ± 7	18 ± 4	1 ± 1	48	4	81	99	82.4	2	inhibitory activities on the proliferation of tumor cells [1]: exhibited inhibitory activities on the proliferation of tumor cells
CC(C)=CCC[C@](C)(O)[C@H]1CC[C@]2(C)[C@@H]1[C@H](O)C[C@@H]1[C@@]3(C)CC[C@H](O[C@@H]4O[C@H](CO)[C@@H](O)[C@H](O)[C@H]4O)C(C)(C)[C@@H]3CC[C@]12C [ginsenoside Rh2, 3-0-β-D-glucopyranosyl-20(s)-protopanaxadiol]																		inhibition of the proliferation of liver cancer cells (liver cancer cells): inhibit the proliferation of liver cancer cells
CC(C)=CCC[C@](C)(O[C@@H]1O[C@H](CO[C@@H]2O[C@@H](CO)[C@H](O)[C@H]2O)[C@@H](O)[C@H](O)[C@H]1O)[C@H]1CC[C@]2(C)[C@@H]1[C@H](O)C[C@@H]1[C@@]3(C)CC[C@H](O)C(C)(C)[C@@H]3CC[C@]12C [Ginsenoside Mc, 20-0-[α-L-arabinofuranosyl(1→6)-β-D-glucopyranosyl-20(S)-protopanaxadiol]]	480	26	8.5	18	-1.6	30.0	220	114 ± 12	44 ± 7	3 ± 1	0	7.6	62	97	100	63.3	2	inhibitory activities on the proliferation of tumor cells [1]: exhibited inhibitory activities on the proliferation of tumor cells; toxicity [6]: nearly negligible; inhibition at 1 µM ([4]; 1 μM): 3%
CC(C)=CCC[C@](C)(O[C@@H]1O[C@H](CO[C@@H]2OC[C@H](O)[C@H](O)[C@H]2O)[C@@H](O)[C@H](O)[C@H]1O)[C@H]1CC[C@]2(C)[C@@H]1[C@H](O)C[C@@H]1[C@@]3(C)CC[C@H](O[C@@H]4O[C@H](CO)[C@@H](O)[C@H](O)[C@H]4O[C@@H]4O[C@H](CO)[C@@H](O)[C@H](O)[C@H]4O)C(C)(C)[C@@H]3CC[C@]12C [ginsenoside Rb2]																		inhibition of vascularization of tumors, extravasation and metastasis of cancer cells (cancer cells): inhibit the vascularization of tumors and extravasation of cancer cells including inhibitory actions on the metastatis of cancer cells
Cc1ccc(C(=O)Nc2ccc(S(=O)(=O)O)c3cc(S(=O)(=O)O)cc(S(=O)(=O)O)c23)cc1NC(=O)c1cccc(NC(=O)Nc2cccc(C(=O)Nc3cc(C(=O)Nc4ccc(S(=O)(=O)O)c5cc(S(=O)(=O)O)cc(S(=O)(=O)O)c45)ccc3C)c2)c1 [Suramin, reference compound]					-3.8	37.1												
CC(C)=CCC[C@](C)(O[C@@H]1O[C@H](CO)[C@@H](O)[C@H](O)[C@H]1O)[C@H]1CC[C@]2(C)[C@@H]1[C@H](O)C[C@@H]1[C@@]3(C)CC[C@H](O)C(C)(C)[C@@H]3CC[C@]12C [Compound K]	26	28	1.7	1.6	4.6	43.2	45	73 ± 4	45 ± 9	0		3.2	62	100		51.5	1.6	inhibitory activity of migration ([3]; in words, control Suramin): more potent inhibitory activity of migration than Suramin; inhibition at 1 µM ([4]; 1 μM): 38%
